# In ChEMBL document CHEMBL6103648, “AI-Driven Discovery of Highly Specific and Efficacious hCES2A Inhibitors for Ameliorating Irinotecan-Triggered Gut Toxicity” (J Med Chem, 2025):
# The source made the active and inactive calls. The calls are words filed in the database; no cut-off is given here.
# Key:
# Mus musculus [1] = experiment: Inhibition of irinotecan-induced anti-tumor activity in C57BL/6J mouse bearing tumor cells assessed as increase in tumor volume at 25 to 50 mg/kg/day, po treated for 14 days; type: functional, organism-based; details: dose 25-50 mg/kg/day, time 14.0 day
# Cytochrome P450 1A2 = molecular target: T1, Cytochrome P450 1A2 (Homo sapiens, UniProt P05177); experiment: Inhibition of CYP1A2 in human liver microsomes using phenacetin as substrate upto 10 uM; type: ADME, Microsome
# T1 sequence (P05177 whole entry): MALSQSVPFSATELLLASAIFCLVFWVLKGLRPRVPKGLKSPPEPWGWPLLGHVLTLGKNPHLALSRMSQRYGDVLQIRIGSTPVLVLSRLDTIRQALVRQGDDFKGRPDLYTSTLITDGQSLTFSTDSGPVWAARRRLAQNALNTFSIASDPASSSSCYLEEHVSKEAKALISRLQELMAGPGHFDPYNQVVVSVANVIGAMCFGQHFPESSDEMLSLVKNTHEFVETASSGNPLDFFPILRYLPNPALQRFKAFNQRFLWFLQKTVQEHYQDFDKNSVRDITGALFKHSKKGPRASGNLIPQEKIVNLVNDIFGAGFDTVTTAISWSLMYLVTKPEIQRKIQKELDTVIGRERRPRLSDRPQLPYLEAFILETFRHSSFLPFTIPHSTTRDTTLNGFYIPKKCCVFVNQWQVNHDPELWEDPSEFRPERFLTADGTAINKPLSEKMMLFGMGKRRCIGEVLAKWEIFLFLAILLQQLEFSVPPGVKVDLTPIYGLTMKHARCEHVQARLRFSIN
# [2] = Apparent permeability across apical to basal side in human Caco-2 cells at 50 uM incubated for 120 mins by UPLC-MS/MS analysis; type: ADME, cell-based
# [3] = Sub-acute toxicity in C57BL/6J mouse assessed as abnormality in kidney at 100 mg/kg/day, po treated for 14 days consecutively by H and E staining based analysis; type: organism-based; details: in vivo, 336 h, time 14 day
# [4] = Efflux ratio of apparent permeability across basal to apical side over apical to basal side in human Caco-2 cells at 50 uM incubated for 120 mins by UPLC-MS/MS analysis; type: ADME, cell-based
# [5] = Sub-acute toxicity in C57BL/6J mouse assessed as change in movement behaviors at 100 mg/kg/day, po treated for 14 days consecutively; type: organism-based; details: in vivo, 336 h, time 14 day
# [6] = Inhibition of human CES2A incubated for 33 mins
# Homo sapiens = organism: Homo sapiens; experiment: Irreversible inhibition of human CES2A measured after 12 hrs by dialysis assay
# [7] = Permeability across apical to basal side in human Caco-2 cells assessed as cumulative penetration amount at 25 uM incubated for 120 mins by UPLC-MS/MS analysis; type: ADME, cell-based; details: caco-2, 2 h
# [8] = Sub-acute toxicity in C57BL/6J mouse assessed as abnormality in spleen at 100 mg/kg/day, po treated for 14 days consecutively by H and E staining based analysis; type: organism-based; details: in vivo, 336 h, time 14 day
# Cytochrome P450 2C9 = Cytochrome P450 2C9 (Homo sapiens, UniProt P11712); experiment: Inhibition of CYP2C9 in human liver microsomes using diclofenac as substrate upto 10 uM; type: ADME, Microsome
# Chain of Cytochrome P450 2C9 (P11712 whole entry): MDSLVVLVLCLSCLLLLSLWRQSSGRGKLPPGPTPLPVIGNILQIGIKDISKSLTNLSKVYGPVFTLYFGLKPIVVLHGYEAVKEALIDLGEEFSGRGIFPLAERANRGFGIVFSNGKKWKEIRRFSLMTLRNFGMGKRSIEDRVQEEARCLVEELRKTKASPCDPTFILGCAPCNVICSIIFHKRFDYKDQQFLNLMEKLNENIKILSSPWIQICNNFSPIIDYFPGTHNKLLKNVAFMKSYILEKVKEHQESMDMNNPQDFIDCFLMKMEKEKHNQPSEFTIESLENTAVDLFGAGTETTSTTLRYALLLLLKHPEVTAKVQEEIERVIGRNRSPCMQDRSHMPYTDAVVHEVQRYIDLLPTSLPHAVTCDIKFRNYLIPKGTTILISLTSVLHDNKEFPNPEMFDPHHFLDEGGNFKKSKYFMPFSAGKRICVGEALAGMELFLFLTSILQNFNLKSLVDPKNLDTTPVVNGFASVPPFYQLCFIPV
# [9] = Apparent permeability across apical to basal side in human Caco-2 cells at 25 uM incubated for 120 mins by UPLC-MS/MS analysis; type: ADME, cell-based
# [10] = Sub-acute toxicity in C57BL/6J mouse assessed as change in ALT level at 100 mg/kg/day, po treated for 14 days consecutively; type: organism-based; details: in vivo, 336 h, time 14 day
# [11] = Sub-acute toxicity in C57BL/6J mouse assessed as abnormality in heart at 100 mg/kg/day, po treated for 14 days consecutively by H and E staining based analysis; type: organism-based; details: in vivo, 336 h, time 14 day
# [12] = Sub-acute toxicity in C57BL/6J mouse assessed as change in UREA level at 100 mg/kg/day, po treated for 14 days consecutively; type: organism-based; details: in vivo, 336 h, time 14 day
# Mus musculus [13] = experiment: Inhibition of irinotecan-triggered gut toxicity in C57BL/6J mouse bearing tumor cells assessed as decrease in serum ALT level at 25 to 50 mg/kg/day, po treated for 14 days; type: functional, organism-based; details: dose 25-50 mg/kg/day, time 14.0 day
# Mus musculus [14] = experiment: Inhibition of irinotecan-triggered gut toxicity in C57BL/6J mouse bearing tumor cells assessed as intact structures in colon tissue at 25 to 50 mg/kg/day, po treated for 14 days by H and E staining based analysis; type: functional, organism-based; details: dose 25-50 mg/kg/day, time 14.0 day
# Cytochrome P450 2C8 = molecular target: T2, Cytochrome P450 2C8 (Homo sapiens, UniProt P10632); experiment: Inhibition of CYP2C8 in human liver microsomes using paclitaxel as substrate upto 10 uM; type: ADME, Microsome
# T2 sequence (P10632 whole entry): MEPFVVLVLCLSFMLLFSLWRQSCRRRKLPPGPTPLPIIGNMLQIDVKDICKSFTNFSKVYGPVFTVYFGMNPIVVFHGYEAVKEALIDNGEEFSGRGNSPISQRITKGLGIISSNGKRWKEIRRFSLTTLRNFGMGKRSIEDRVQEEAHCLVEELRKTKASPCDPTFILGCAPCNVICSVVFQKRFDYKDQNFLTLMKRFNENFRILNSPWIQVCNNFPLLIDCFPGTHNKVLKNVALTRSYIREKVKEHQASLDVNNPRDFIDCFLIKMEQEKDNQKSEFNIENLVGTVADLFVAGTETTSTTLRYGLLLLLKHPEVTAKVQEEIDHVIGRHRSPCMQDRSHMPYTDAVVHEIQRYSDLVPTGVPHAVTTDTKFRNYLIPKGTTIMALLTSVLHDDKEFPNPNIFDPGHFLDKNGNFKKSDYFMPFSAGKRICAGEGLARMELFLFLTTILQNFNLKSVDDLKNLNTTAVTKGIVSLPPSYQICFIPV
# [15] = Sub-acute toxicity in C57BL/6J mouse assessed as change in TP level at 100 mg/kg/day, po treated for 14 days consecutively; type: organism-based; details: in vivo, 336 h, time 14 day
# Mus musculus [16] = experiment: Inhibition of irinotecan-triggered gut toxicity in C57BL/6J mouse bearing tumor cells assessed as increase in body weight at 25 to 50 mg/kg/day, po treated for 14 days; type: functional, organism-based; details: dose 25-50 mg/kg/day, time 14.0 day
# Mus musculus [17] = experiment: Inhibition of irinotecan-triggered gut toxicity in C57BL/6J mouse bearing tumor cells assessed as increase in ZO-1 level in colon tissue at 25 to 50 mg/kg/day, po treated for 14 days by immunofluorescence based analysis; type: functional, organism-based; details: dose 25-50 mg/kg/day, time 14.0 day
smiles,measurement,setting,value
CCN(C)C(=O)Oc1ccc(C(=O)N2CCC(Cc3ccccc3)CC2)cc1OC,inhibition,Mus musculus [1],inactive
same,inhibition (INH),Cytochrome P450 1A2,Not_active
same,"Papp A→B at 2 h, 50 µM",[2],15.6 ×10⁻⁶ cm/s
same,Activity,[3],Non-toxic
same,"efflux ratio at 2 h, 50 µM",[4],0.67
same,Activity,[5],Non-toxic
same,IC50,[6],0.04 nM
same,inhibition,Homo sapiens,Active
same,Activity,[7],3.17 µM
same,Activity,[8],Non-toxic
same,inhibition (INH),Cytochrome P450 2C9,Not_active
same,"Papp A→B at 2 h, 25 µM",[9],15.7 ×10⁻⁶ cm/s
same,Activity,[10],Non-toxic
same,Activity,[11],Non-toxic
same,Activity,[12],Non-toxic
same,inhibition,Mus musculus [13],Active
same,inhibition,Mus musculus [14],Active
same,inhibition (INH),Cytochrome P450 2C8,Not_active
same,Activity,[15],Non-toxic
same,inhibition,Mus musculus [16],Active
same,inhibition,Mus musculus [17],Active
